Assay results from patent US6664229B2, “Methods for treatment using novel ligands of the neuropeptide receptor HFGAN72” (SmithKline Beecham p.l.c., priority 1997, dated 2003).

Tested on: rats
Experiment: Cannula placement verification: dipsogenic response to icv angiotensin II
Assay type: in vivo, rat
Details: 100 ng i.c.v., 5 minute period post-AII, average
Method: An appropriate cannula placement is indicated by an intense dipsogenic response to 100 ng i.c.v. angiotensin II (AII). To induce a dipsogenic effect, access is required to the AII receptors located on circumventricular organs around the third ventricle. The time spent drinking for a 5 minute period post-AII is recorded. This tends to be an all-or-nothing effect, but rats spend on average 150 s drinking. […] This may be verified by injection of cresyl violet and sectioning of the brain.

With “angiotensin II (DRVYIHPF; Angiotensin-2; UniProt P01019 25-32, looked up)” the time spent drinking was ~150 s.
